According to US6548552B1 (priority 1997, dated 2003):

How the values were obtained:
Assay type in all cases: cell-based
S. aureus = tested on: S. aureus
[1] = tested on: TSST-1 production by S. aureus
Prevotella bivia = tested on: Prevotella bivia
Vaginal Microflora = tested on: Vaginal Microflora
[2] = tested on: Peptostreptococcus anaerobius

Row | Compound | OD540 (Percentage of Control) (S. aureus) | effect on bacterial toxin production (in words) [1] | other results
1 | O=C1O[C@H]([C@@H](O)CO)C(O)=C1O [Ascorbic acid, ascorbic acid] | 104 Percentage of Control | reduced toxin production | Staphylococcal / bacterial growth (inhibition, in words) (S. aureus): does not inhibit Staphylococcal growth; reduction of toxin production [1]: up to 40%
2 | N[C@@H](CS)C(=O)O [Cysteine, cysteine] | 105 Percentage of Control | reduced toxin production | 
3 | OCC(O)CO [glycerin] |  |  | growth of P. bivia (Prevotella bivia): inhibited; growth of the isolates tested (Vaginal Microflora): did not effect the growth
4 | sodium bisulfite | 64 Percentage of Control |  | 
5 | CCCOC(=O)c1cc(O)c(O)c(O)c1 [Propylgallate, propyl gallate] | 74 Percentage of Control |  | 
6 | CC(=O)N[C@@H](CS)C(=O)O [N-acetyl cysteine, N-acetylcysteine] | 89 Percentage of Control | reduced toxin production | 
7 | delta-tocopherol | 112 Percentage of Control |  | 
8 | beta-mercaptoethanol | 93 Percentage of Control |  | 
9 | potassium bisulfite | 91 Percentage of Control |  | 
10 | CCCCCCCCCCCC(=O)OCCOCCOCCOCCOCCOCCOCCOCCOCCOCCOCCOCCOCCOCCOCCOCCOCCOCCOCCOCCOCC(OCCOCCOCCOCCOCCOCCOCCOCCOCCOCCOCCOCCOCCOCCOCCOCCOCCOCCOCCOCCO)C1OCC(OCCOCCOCCOCCOCCOCCOCCOCCOCCOCCOCCOCCOCCOCCOCCOCCOCCOCCOCCOCCO)C1OCCOCCOCCOCCOCCOCCOCCOCCOCCOCCOCCOCCOCCOCCOCCOCCOCCOCCOCCOCCO (centres unmarked) [Polysorbate 20] |  |  | growth of P. bivia (Prevotella bivia): suppressed; growth of P. anaerobius [2]: suppressed
11 | thiodipropionic acid | 99 Percentage of Control |  | 
12 | Cn1c(=O)c2c(ncn2C)n(C)c1=O [Caffeine, caffeine] | 93 Percentage of Control | reduced toxin production | 
